The values below are quoted from earlier work in patent US20100221334A1, “COMPOSITIONS INCLUDING LEUKOTRIENE ANTAGONISTS AND NSAIDS AND METHODS OF USING THE SAME” (priority 2007, published 2010).

The conditions of the series: general statement on long-acting NSAIDs; species not given.
For the compound `CC(C(=O)O)c1ccc(-c2ccccc2)c(F)c1` (stereo not shown) [flurbiprofen], the pharmacokinetic half-life result is reported as “about 6 hours”. `Cc1cccc(Nc2ccccc2C(=O)O)c1C` [mefenamic acid]: the pharmacokinetic half-life result is listed as “up to 4 hours”. As to `CCc1cccc2c3c([nH]c12)C(CC)(CC(=O)O)OCC3` (stereo not shown) [etodolac], the pharmacokinetic half-life result is listed as “about 7 hours”. For `O=C(c1ccccc1)c1ccc2n1CCC2C(=O)O` (stereo not shown) [ketorolac], the pharmacokinetic half-life was 8 to 9 h.
